# Assay results published in patent publication EP4656722A1, “OR2AT4 RECEPTOR AGONIST APTAMERS AND USES THEREOF” (Fundacion Instituto De Investigacion Sanitaria Fundacion …, priority 2024, dated 2025).
# Legend:
# [1] = system: HaCaT-OR2AT4-Myc-DDK transfectants; test: XTT cell proliferation assay in HaCaT-OR2AT4-Myc-DDK transfectants; assay type: cell-based, human; details: 250 µM, days 1, 3 and 5, compared to vehicle (Control)
# human hair follicles = details: ex vivo; cited from earlier work
# telogen effluvium = details: solution containing 1% Sandalore applied for 24 weeks, 60 patients with telogen effluvium; cited from earlier work
# OR2AT4 [2] = molecular target: T1, OR2AT4 (Homo sapiens, UniProt A6NND4); set-up: host or cells: keratinocytes; details: cited from earlier work
# T1 sequence (A6NND4 1-320): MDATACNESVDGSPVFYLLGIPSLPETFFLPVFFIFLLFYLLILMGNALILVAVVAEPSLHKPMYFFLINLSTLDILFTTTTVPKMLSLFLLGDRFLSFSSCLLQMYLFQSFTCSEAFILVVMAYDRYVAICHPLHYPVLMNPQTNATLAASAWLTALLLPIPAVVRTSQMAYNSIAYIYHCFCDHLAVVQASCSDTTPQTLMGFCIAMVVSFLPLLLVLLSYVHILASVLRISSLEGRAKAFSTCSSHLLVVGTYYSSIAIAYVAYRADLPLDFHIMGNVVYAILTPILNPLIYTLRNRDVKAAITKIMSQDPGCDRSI
# OR2AT4 [3] = molecular target: T1, OR2AT4; test: CRE-luciferase reporter activity assay in 293 cells stably expressing OR2AT4; assay type: cell-based; set-up: GeneScript (pcDNA3.1-Hygro for GNAL); details: synthetic odorants 400 µM, 4 hours, clone 293-OR2AT4-Golf-clone#2
# Text: • Figure 1. Generation of a 293 clone that stably expresses the OR2AT4 receptor. The 293-OR2AT4-Golf transfectant was generated by means of calcium phosphate cotransfection into 293 cells of the expression plasmids for the OR2AT4 receptor (NM_001005285, pCMV6-Entry-OR2AT4-Neo; Origene) and for the Golf subunit of G proteins, generated by means of subcloning the hGNAL gene (NM_001261443.1) into the expression plasmid (pcDNA3.1-Hygro, GeneScript). Stable transfectants were selected on medium containing neomycin and hygromycin B, and clone 293-OR2AT4-Golf-clone#2 was obtained by limiting dilution. […] Replicates of the reactions for the target and housekeeping genes, which were performed simultaneously for each template cDNA analysed, were included in triplicate. […] Data normalisation was calculated by means of the formula [Luc/Renilla(N)-Luc/Renilla(lowest)]/[Luc/Renilla(highest)-Luc/Renilla(lowest)]. […] Means were calculated using three replicates per condition, n=3. […] Statistical significance was determined using Student's t test (*p<0.05 and **p<0.001, with respect to control). […] The anti proliferative effect of the aptamers on the K562 cell line was evaluated in a colorimetric proliferation assay based on the reduction of tetrazolium salts (XTT). […]
cAMP production (normalised luciferase activity) (OR2AT4 [3]),Structure (SMILES),cell proliferation [1],apoptosis (human hair follicles),hair growth (human hair follicles),production of the growth factor IGF-1 (human hair follicles),"degree of hair loss, hair volume, terminal/vellous hair ratio, anagen/catagen-telogen ratio, patient's self-esteem (telogen effluvium)",activation of the OR2AT4 receptor expressed in keratinocytes (OR2AT4 [2])
activated cAMP production,"CC1=CCC(CCC(C)C(C)O)C1(C)C (stereo not shown) [Sandalore, sandal pentanol]",significant proliferative response,reducing apoptosis,promotes hair growth,increasing the production,improvement,capable of activating the OR2AT4 receptor
activated cAMP production,"CC1=CCC(CCC(C)CO)C1(C)C (stereo not shown) [Brahmanol, sandal cyclopentane]",significant proliferative response,–,–,–,–,capable of activating the OR2AT4 receptor
